# According to patent publication US10213427B2 (Incyte Corporation, priority 2010, dated 2019):
# Molecular target: FGFR3 enzyme (Millipore) (Homo sapiens (Human), UniProt P22607)
# Test: FGFR3 Enzymatic Assay
# Format: biochemical
# Settings: FRET peptide phosphorylation, 140 μM ATP
# Method in brief: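 FGFR3 preincubated 5-10 min with serially diluted inhibitor in 50 mM HEPES pH 7.5, 10 mM MgCl2, 1 mM EGTA, 5 mM DTT, then reacted 1 h at 25 °C. Peptide phosphorylation detected by FRET; IC50 from variable-slope sigmoidal fit.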
# Sequence of FGFR3 enzyme (Millipore) (P22607 23-806): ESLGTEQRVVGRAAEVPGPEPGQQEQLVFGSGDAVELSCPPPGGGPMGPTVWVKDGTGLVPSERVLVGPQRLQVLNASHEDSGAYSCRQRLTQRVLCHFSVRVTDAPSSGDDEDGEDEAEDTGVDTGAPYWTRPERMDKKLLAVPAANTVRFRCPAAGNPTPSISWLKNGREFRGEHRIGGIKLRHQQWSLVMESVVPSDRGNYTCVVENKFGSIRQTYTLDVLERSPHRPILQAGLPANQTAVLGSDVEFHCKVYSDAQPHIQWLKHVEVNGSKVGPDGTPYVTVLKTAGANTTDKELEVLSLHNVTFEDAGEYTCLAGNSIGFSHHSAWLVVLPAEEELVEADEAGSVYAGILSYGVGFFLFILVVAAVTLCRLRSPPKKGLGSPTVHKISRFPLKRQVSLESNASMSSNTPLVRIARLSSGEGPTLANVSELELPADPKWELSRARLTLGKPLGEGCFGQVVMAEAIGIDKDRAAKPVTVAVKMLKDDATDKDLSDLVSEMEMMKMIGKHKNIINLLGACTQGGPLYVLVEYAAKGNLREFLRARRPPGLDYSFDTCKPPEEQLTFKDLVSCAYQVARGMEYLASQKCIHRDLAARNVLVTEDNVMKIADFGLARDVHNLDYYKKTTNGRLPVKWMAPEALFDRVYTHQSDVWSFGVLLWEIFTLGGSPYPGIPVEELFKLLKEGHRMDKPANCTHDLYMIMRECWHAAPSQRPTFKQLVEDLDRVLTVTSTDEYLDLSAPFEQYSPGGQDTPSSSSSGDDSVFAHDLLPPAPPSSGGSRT
row,Structure (SMILES),IC50 [nM]
1,"COCC(=O)N1CC(CC#N)(n2cc(-c3cnn4c(-c5cccc(NC(=O)NCC(F)(F)F)c5)cnc4c3)cn2)C1 [Example 75, N-[3-(7-{1-[3-(Cyanomethyl)-1-(methoxyacetyl)azetidin-3-yl]-1H-pyrazol-4-yl}imidazo[1,2-b]pyridazin-3-yl)phenyl]-N′-(2,2,2-trifluoroethyl)urea]",< 10
2,"O=C(NCC(F)(F)F)Nc1cccc(-n2cnc3cc(-c4cnn(C5CCN(C(=O)N6CCCC6)CC5)c4)ccc32)c1 [Example 26, N-[3-(5-{t-[1-(Pyrrolidin-1-ylcarbonyl)piperidin-4-yl]-1H-pyrazol-4-yl}-1H-benzimidazol-1-yl)phenyl]-N′-(2,2,2-trifluoroethyl)urea]",< 10
3,"O=C(NCC(F)(F)F)Nc1cccc(-c2cnc3cc(-c4cnn(C5CCN(C(=O)NCC6CCCO6)CC5)c4)cnn23)c1 (stereo not shown) [Example 40, N-(tetrahydrofuran-2-ylmethyl)-4-(4-{3-[3-({[(2,2,2-trifluoroethyl)amino]carbonyl}amino)phenyl]imidazo[1,2-b]pyridazin-7-yl}-1H-pyrazol-1-yl)piperidine-1-carboxamide]",< 10
4,"O=C(NCC(F)(F)F)Nc1cccc(-c2cnc3cc(-c4cnn(C5CCN(C(=O)CC6CCCC6)CC5)c4)cnn23)c1 [Example 35, N-[3-(7-{1-[1-(cyclopentylacetyl)piperidin-4-yl]-1H-pyrazol-4-yl}imidazo[1,2-b]pyridazin-3-yl)phenyl]-N′-(2,2,2-trifluoroethyl)urea]",< 10
5,CC(C(=O)NC[C@@H]1CCCO1)c1ccc(-c2cnn3c(-c4cccc(NC(=O)NCC(F)(F)F)c4)cnc3c2)cc1 (stereo partly shown) [Example 100],< 10
6,"CC1(C(=O)N2CCC(n3cc(-c4cnn5c(-c6cccc(NC(=O)NCC(F)(F)F)c6)cnc5c4)cn3)CC2)CC1 [Example 42, N-{3-[7-(1-{1-[(1-Methylcyclopropyl)carbonyl]piperidin-4-yl}-1H-pyrazol-4-yl)imidazo[1,2-b]pyridazin-3-yl]phenyl}-N′-(2,2,2-trifluoroethyl)urea]",< 10
7,"CC(C(=O)NCC#N)n1cc(-c2cnn3c(-c4cccc(NC(=O)NCC(F)(F)F)c4)cnc3c2)cn1 (stereo not shown) [Example 66, N-(Cyanomethyl)-2-(4-{3-[3-({[(2,2,2-trifluoroethyl)amino]carbonyl}amino)phenyl]imidazo[1,2-b]pyridazin-7-yl}-1H-pyrazol-1-yl)propanamide]",< 10
8,"CNC(=O)C(C)c1ccc(-c2cnn3c(-c4cccc(NC(=O)NCC(F)(F)F)c4)cnc3c2)cc1 (stereo not shown) [Example 98, N-Methyl-2-(4-{3-[3-({[(2,2,2-trifluoroethyl)amino]carbonyl}amino)phenyl]imidazo[1,2-b]pyridazin-7-yl}phenyl)propanamide]",< 10
9,"CC(C(=O)N(C)C)n1cc(-c2cnn3c(-c4cccc(NC(=O)NCC(F)(F)F)c4)cnc3c2)cn1 (stereo not shown) [Example 56, N,N-Dimethyl-2-(4-{3-[3-({[(2,2,2-trifluoroethyl)amino]carbonyl}amino)phenyl]imidazo[1,2-b]pyridazin-7-yl}-1H-pyrazol-1-yl)propanamide]",< 10
10,"CN1CCC(CNC(=O)c2ccc(-c3ccc4c(c3)ncn4-c3cccc(NC(=O)NCC(F)(F)F)c3)cc2)CC1 [Example 10, N-[(1-Methylpiperidin-4-yl)methyl]-4-{1-[3-({[(2,2,2-trifluoroethyl)amino]carbonyl}amino)phenyl]-1H-benzimidazol-5-yl}benzamide]",< 10
11,"O=C(NCC(F)(F)F)Nc1cccc(-c2cnc3cc(-c4cnn(C5CCN(C(=O)C6CCOC6)CC5)c4)cnn23)c1 (stereo not shown) [Example 48, N-[3-(7-{1-[1-(tetrahydrofuran-3-ylcarbonyl)piperidin-4-yl]-1H-pyrazol-4-yl}imidazo[1,2-b]pyridazin-3-yl)phenyl]-N′-(2,2,2-trifluoroethyl)urea]",< 10
12,"CC(C(=O)N1CC(C#N)C1)n1cc(-c2cnn3c(-c4cccc(NC(=O)NCC(F)(F)F)c4)cnc3c2)cn1 (stereo not shown) [Example 72, N-[3-(7-{1-[2-(3-Cyanoazetidin-1-yl)-1-methyl-2-oxoethyl]-1H-pyrazol-4-yl}imidazo[1,2-b]pyridazin-3-yl)phenyl]-N′-(2,2,2-trifluoroethyl)urea]",< 10
13,"N#CCC(n1cc(-c2cnn3c(-c4cccc(NC(=O)NCC(F)(F)F)c4)cnc3c2)cn1)C(F)(F)F (stereo not shown) [Example 90, N-[3-(7-{1-[1-(Cyanomethyl)-2,2,2-trifluoroethyl]-1H-pyrazol-4-yl}imidazo[1,2-b]pyridazin-3-yl)phenyl]-N′-(2,2,2-trifluoroethyl)urea]",< 10
14,"O=C(NCC(F)(F)F)Nc1cccc(-n2cnc3cc(-c4cnn(C5CCN(CC6CC6)CC5)c4)ccc32)c1 [Example 21, N-[3-(5-{1-[1-(Cyclopropylmethyl)piperidin-4-yl]-1H-pyrazol-4-yl}-1H-benzimidazol-1-yl)phenyl]-N′-(2,2,2-trifluoroethyl)urea]",< 10
15,"CNC(=O)Nc1cccc(-c2cnc3cc(-c4cccc(C(=O)NC(C)c5ccccc5F)c4)cnn23)c1 (stereo not shown) [Example 97, N-[1-(2-Fluorophenyl)ethyl]-3-[3-(3-{[(methylamino)carbonyl]amino}phenyl)imidazo[1,2-b]pyridazin-7-yl]benzamide]",> 25
16,"CC(C(=O)NCC1CC1)c1ccc(-c2ccc3c(c2)ncn3-c2cccc(NC(=O)NCC(F)(F)F)c2)cc1 (stereo not shown) [Example 16, N-(Cyclopropylmethyl)-2-(4-{{1-[3-(([(2,2,2-trifluoroethyl)amino]carbonyl)}amino)phenyl]-1H-benzimidazol-5-yl}phenyl)propanamide]",< 10
17,"N#CCC(c1ccco1)n1cc(-c2cnn3c(-c4cccc(NC(=O)NCC(F)(F)F)c4)cnc3c2)cn1 (stereo not shown) [Example 91, N-[3-(7-{1-[2-Cyano-1-(2-furyl)ethyl]-1H-pyrazol-4-yl}imidazo[1,2-b]pyridazin-3-yl)phenyl]-N′-(2,2,2-trifluoroethyl)urea]",< 10
18,"N#CC1(C(=O)N2CCC(n3cc(-c4cnn5c(-c6cccc(NC(=O)NCC(F)(F)F)c6)cnc5c4)cn3)CC2)CC1 [Example 45, N-{3-[7-(1-{1-[(1-Cyanocyclopropyl)carbonyl]piperidin-4-yl}-1H-pyrazol-4-yl)imidazo[1,2-b]pyridazin-3-yl]phenyl}-N′-(2,2,2-trifluoroethyl)urea]",< 10
19,"CC(C(=O)N1CCC(O)CC1)c1ccc(-c2cnn3c(-c4cccc(NC(=O)NCC(F)(F)F)c4)cnc3c2)cc1 (stereo not shown) [Example 102, N-[3-(7-{4-[2-(4-Hydroxypiperidin-1-yl)-1-methyl-2-oxoethyl]phenyl}imidazo[1,2-b]pyridazin-3-yl)phenyl]-N′-(2,2,2-trifluoroethyl)urea]",< 10
20,"CC(C(=O)N1CCC(C#N)CC1)n1cc(-c2cnn3c(-c4cccc(NC(=O)NCC(F)(F)F)c4)cnc3c2)cn1 (stereo not shown) [Example 70, N-[3-(7-{1-[2-(4-Cyanopiperidin-1-yl)-1-methyl-2-oxoethyl]-1H-pyrazol-4-yl}imidazo[1,2-b]pyridazin-3-yl)phenyl]-N′-(2,2,2-trifluoroethyl)urea]",< 10
21,"CC(C(=O)NCc1ccccn1)n1cc(-c2cnn3c(-c4cccc(NC(=O)NCC(F)(F)F)c4)cnc3c2)cn1 (stereo not shown) [Example 61, N-(Pyridin-2-ylmethyl)-2-(4-{3-[3-({[(2,2,2-trifluoroethyl)amino]carbonyl}amino)phenyl]imidazo[1,2-b]pyridazin-7-yl}-1H-pyrazol-1-yl)propanamide]",< 10
22,"CC(C(=O)N1CCN(C)CC1)n1cc(-c2cnn3c(-c4cccc(NC(=O)NCC(F)(F)F)c4)cnc3c2)cn1 (stereo not shown) [Example 60, N-[3-(7-{1-[1-Methyl-2-(4-methylpiperazin-1-yl)-2-oxoethyl]-1H-pyrazol-4-yl}imidazo[1,2-b]pyridazin-3-yl)phenyl]-N′-(2,2,2-trifluoroethyl)urea]",< 10
23,"CC(C(=O)NC1CCOCC1)n1cc(-c2cnn3c(-c4cccc(NC(=O)NCC(F)(F)F)c4)cnc3c2)cn1 (stereo not shown) [Example 57, N-(Tetrahydro-2H-pyran-4-yl)-2-(4-{3-[3-({[(2,2,2-trifluoroethyl)amino]carbonyl}amino)phenyl]imidazo[1,2-b]pyridazin-7-yl}-1H-pyrazol-1-yl)propanamide]",< 10
24,"O=C(NCC(F)(F)F)Nc1cccc(-c2cnc3cc(-c4cnn(C5CCN(C(=O)CC6CCCO6)CC5)c4)cnn23)c1 (stereo not shown) [Example 50, N-[3-(7-{1-[1-(tetrahydrofuran-2-ylacetyl)piperidin-4-yl]-1H-pyrazol-4-yl}imidazo[1,2-b]pyridazin-3-yl)phenyl]-N′-(2,2,2-trifluoroethyl)urea]",< 10
25,"Cn1ccnc1CNC(=O)c1ccc(-c2ccc3c(c2)ncn3-c2cccc(NC(=O)NCC(F)(F)F)c2)cc1 [Example 13, N-[(1-Methyl-1H-imidazol-2-yl)methyl]-4-{1-[3-({[(2,2,2-trifluoroethyl)amino]carbonyl}amino)phenyl]-1H-benzimidazol-5-yl}benzamide]",< 10
26,"O=C(NCC(F)(F)F)Nc1cccc(-n2cnc3cc(-c4cccc(C(=O)NCCN5CCOCC5)c4)ccc32)c1 [Example 4, N-(2-Morpholin-4-ylethyl)-3-{1-[3-({[(2,2,2-trifluoroethyl)amino]carbonyl}amino)phenyl]-1H-benzimidazol-5-yl}benzamide]",< 10
27,"COCC(=O)N1CCC(n2cc(-c3cnn4c(-c5cccc(NC(=O)NCC(F)(F)F)c5)cnc4c3)cn2)CC1 [Example 30, N-[3-(7-{1-[1-(Methoxyacetyl)piperidin-4-yl]-1H-pyrazol-4-yl}imidazo[1,2-b]pyridazin-3-yl)phenyl]-N′-(2,2,2-trifluoroethyl)urea]",< 10
28,"O=C(NCC(F)(F)F)Nc1cccc(-n2cnc3cc(-c4ccc(C(=O)NCCN5CCOCC5)cc4)ccc32)c1 [Example 11, N-(2-Morpholin-4-ylethyl)-4-{1-[3-({[(2,2,2-trifluoroethyl)amino]carbonyl}amino)phenyl]-1H-benzimidazol-5-yl}benzamide]",< 10
